Counter-ions that a name gives are not always drawn.
These compounds were tested on HIV-1 single-round infectious reporter virus (assay: Single-round infectious HIV-1 luciferase reporter virus infection of HeLa CD4 cells (antiviral EC50)). Settings: Human immunodeficiency virus 1, HeLa, read-out: EC50 Group from Table 3.
Format: cell-based
Description: • Virus production—Human embryonic Kidney cell line, 293T, was propagated in Dulbecco's Modified Eagle Medium (Invitrogen, Carlsbad, Calif.) containing 10% fetal Bovine serum (FBS, Sigma, St. Louis, Mo.). • Virus infection—Human epithelial cell line, HeLa, expressing the HIV-1 receptor CD4 was propagated in Dulbecco's Modified Eagle Medium (Invitrogen, Carlsbad, Calif.) containing 10% fetal Bovine serum (FBS, Sigma, St. Louis, Mo.) and supplemented with 0.2 mg/mL Geneticin (Invitrogen, Carlsbad, Calif.). Virus-Single-round infectious reporter virus was produced by co-transfecting human embryonic Kidney 293 cells with an HIV-1 envelope DNA expression vector and a proviral cDNA containing an envelope deletion mutation and the luciferase reporter gene inserted in place of HIV-1 nef sequences (Chen et al, Ref. 41). Transfections were performed using lipofectAMINE PLUS reagent as described by the manufacturer (Invitrogen, Carlsbad, Calif.). Experiment • 1. HeLa CD4 cells were plated in 96 well plates at a cell density of 1×10^4 cells per well in 100 μl Dulbecco's Modified Eagle Medium containing 10% fetal Bovine serum and incubated overnight. • 2. Compound was added in a 2 μl dimethylsulfoxide solution, so that the final assay concentration would be ≦10 μM. • 3. 100 μl of single-round infectious reporter virus in Dulbecco's Modified Eagle Medium was then added to the plated cells and compound at an approximate multiplicity of infection (MOI) of 0.01, resulting in a final volume of 200 μl per well. • 4. Virally-infected cells were incubated at 37 degrees Celsius, in a CO2 incubator, and harvested 72 h after infection. • 5. Viral infection was monitored by measuring luciferase expression from viral DNA in the infected cells using a luciferase reporter gene assay kit, as described by the manufacturer (Roche Molecular Biochemicals, Indianapolis, Ind.). Infected cell supernatants were removed and 50 μl of lysis buffer was added per well. After 15 minutes, 50 μl of freshly-reconstituted luciferase assay reagent was added per well. Luciferase activity was then quantified by measuring luminescence using a Wallac microbeta scintillation counter. • 6. The percent inhibition for each compound was calculated by quantifying the level of luciferase expression in cells infected in the presence of each compound as a percentage of that observed for cells infected in the absence of compound and subtracting such a determined value from 100. • 7. An EC50 provides a method for comparing the antiviral potency of the compounds of this disclosure. The effective concentration for fifty percent inhibition (EC50) was calculated with the Microsoft Excel Xlfit curve fitting software. For each compound, curves were generated from percent inhibition calculated at 10 different concentrations by using a four parameter logistic model (model 205). Table 3 is the key for the data in Table 4. Results
`COc1cnc(-c2cc(C(=O)O)[nH]n2)c2[nH]cc(C(=O)C(=O)N3CCN(c4nnnn4-c4ccccc4)CC3)c12` [B-21, 3-(4-methoxy-3-(2-oxo-2-(4-(1-phenyl-1H-tetrazol-5-yl)piperazin-1-yl)acetyl)-1H-pyrrolo[2,3-c]pyridin-7-yl)-1H-pyrazole-5-carboxylic acid] gave an EC50 of less than 500 nM.
With `COc1cnc(-c2cc(CO)[nH]n2)c2[nH]cc(C(=O)C(=O)N3CCN(c4nnnn4-c4ccccc4)CC3)c12` [B-22, 1-(7-(5-(hydroxymethyl)-1H-pyrazol-3-yl)-4-methoxy-1H-pyrrolo[2,3-c]pyridin-3-yl)-2-(4-(1-phenyl-1H-tetrazol-5-yl)piperazin-1-yl)ethane-1,2-dione] the EC50 was less than 500 nM.
With `CN(C)CCNc1ccn(-c2ncc(F)c3c(C(=O)C(=O)N4CCN(c5nnnn5-c5ccccc5)CC4)c[nH]c23)n1` [B-23, 1-(7-(3-(2-(dimethylamino)ethylamino)-1H-pyrazol-1-yl)-4-fluoro-1H-pyrrolo[2,3-c]pyridin-3-yl)-2-(4-(1-phenyl-1H-tetrazol-5-yl)piperazin-1-yl)ethane-1,2-dione TFA] the EC50 was less than 500 nM.
`COc1cnc(-c2cc(CNCCO)[nH]n2)c2[nH]cc(C(=O)C(=O)N3CCN(c4nnnn4-c4ccccc4)CC3)c12` [B-24, 1-(7-(5-((2-hydroxyethylamino)methyl)-1H-pyrazol-3-yl)-4-methoxy-1H-pyrrolo[2,3-c]pyridin-3-yl)-2-(4-(1-phenyl-1H-tetrazol-5-yl)piperazin-1-yl)ethane-1,2-dione TFA] showed an EC50 of less than 500 nM.
`COc1cnc(-c2cc(CNCCN(C)C)[nH]n2)c2[nH]cc(C(=O)C(=O)N3CCN(c4nnnn4-c4ccccc4)CC3)c12` [B-25, 1-(7-(5-((2-(dimethylamino)ethylamino)methyl)-1H-pyrazol-3-yl)-4-methoxy-1H-pyrrolo[2,3-c]pyridin-3-yl)-2-(4-(1-phenyl-1H-tetrazol-5-yl)piperazin-1-yl)ethane-1,2-dione TFA] was tested, and the EC50 was less than 500 nM.
For `COc1cnc(-c2cc(CN(C)CCN(C)C)[nH]n2)c2[nH]cc(C(=O)C(=O)N3CCN(c4nnnn4-c4ccccc4)CC3)c12` [B-26, 1-(7-(5-(((2-(dimethylamino)ethyl)(methyl)amino)methyl)-1H-pyrazol-3-yl)-4-methoxy-1H-pyrrolo[2,3-c]pyridin-3-yl)-2-(4-(1-phenyl-1H-tetrazol-5-yl)piperazin-1-yl)ethane-1,2-dione TFA], the EC50 was less than 500 nM.
`COc1cnc(-c2cc(CNCCc3ccncc3)[nH]n2)c2[nH]cc(C(=O)C(=O)N3CCN(c4nnnn4-c4ccccc4)CC3)c12` [B-27, 1-(4-methoxy-7-(5-((2-(pyridin-4-yl)ethylamino)methyl)-1H-pyrazol-3-yl)-1H-pyrrolo[2,3-c]pyridin-3-yl)-2-(4-(1-phenyl-1H-tetrazol-5-yl)piperazin-1-yl)ethane-1,2-dione TFA] showed an EC50 of less than 500 nM.
`O=C(C(=O)N1CCN(c2nnnn2-c2ccccc2)CC1)c1c[nH]c2c(-c3cc[nH]n3)ncc(F)c12` [B-28] gave an EC50 of less than 500 nM.
In the case of `Cn1ccc(-c2ncc(F)c3c(C(=O)C(=O)N4CCN(c5nnnn5-c5ccccc5)CC4)c[nH]c23)n1` [B-29], the EC50 is reported as less than 500 nM.
For `CN(C)CCn1ccc(-c2ncc(F)c3c(C(=O)C(=O)N4CCN(c5nnnn5-c5ccccc5)CC4)c[nH]c23)n1` [B-30], the EC50 was less than 500 nM.
Work on `O=C(C(=O)N1CCN(c2nnnn2-c2ccccc2)CC1)c1c[nH]c2c(-c3ccn(CCN4CCOCC4)n3)ncc(F)c12` [B-31] yielded an EC50 of less than 500 nM.
With `COc1cc[n+]([O-])c2[nH]cc(C(=O)C(=O)N3CCN(c4nnnn4-c4ccccc4)CC3)c12` [B-32] the EC50 was greater than 500 nM.
Compound `CCOC(=O)c1cc(-c2ncc(F)c3c(C(=O)C(=O)N4CCN(c5nnnn5-c5ccccc5)CC4)c[nH]c23)n[nH]1` [B-33] has an EC50 of less than 500 nM.
`O=C(O)c1cc(-c2ncc(F)c3c(C(=O)C(=O)N4CCN(c5nnnn5-c5ccccc5)CC4)c[nH]c23)n[nH]1` [B-34] was tested, and the EC50 was less than 500 nM.
`CN(C)CCN(C)C(=O)c1cc(-c2ncc(F)c3c(C(=O)C(=O)N4CCN(c5nnnn5-c5ccccc5)CC4)c[nH]c23)n[nH]1` [B-35] showed an EC50 of less than 500 nM.
`CN(CCO)C(=O)c1cc(-c2ncc(F)c3c(C(=O)C(=O)N4CCN(c5nnnn5-c5ccccc5)CC4)c[nH]c23)n[nH]1` [B-36] showed an EC50 of less than 500 nM.
Compound `O=C(NCCO)c1cc(-c2ncc(F)c3c(C(=O)C(=O)N4CCN(c5nnnn5-c5ccccc5)CC4)c[nH]c23)n[nH]1` [B-37] has an EC50 of less than 500 nM.
In the case of `CN(C)CCCN(C)C(=O)c1cc(-c2ncc(F)c3c(C(=O)C(=O)N4CCN(c5nnnn5-c5ccccc5)CC4)c[nH]c23)n[nH]1` [B-38], the EC50 is reported as less than 500 nM.
With `CN1CCN(CCCNC(=O)c2cc(-c3ncc(F)c4c(C(=O)C(=O)N5CCN(c6nnnn6-c6ccccc6)CC5)c[nH]c34)n[nH]2)CC1` [B-39] the EC50 was less than 500 nM.
With `O=C(NCCN1CCCC1)c1cc(-c2ncc(F)c3c(C(=O)C(=O)N4CCN(c5nnnn5-c5ccccc5)CC4)c[nH]c23)n[nH]1` [B-40] the EC50 was less than 500 nM.
In the case of `O=C(NCCc1ccncc1)c1cc(-c2ncc(F)c3c(C(=O)C(=O)N4CCN(c5nnnn5-c5ccccc5)CC4)c[nH]c23)n[nH]1` [B-41], the EC50 is reported as less than 500 nM.
Compound `O=C(NCCN1CCOCC1)c1cc(-c2ncc(F)c3c(C(=O)C(=O)N4CCN(c5nnnn5-c5ccccc5)CC4)c[nH]c23)n[nH]1` [B-42] has an EC50 of less than 500 nM.
Work on `CCOC(=O)c1cc(-c2ncc(F)c3c(C(=O)C(=O)N4CCN(c5nnnn5-c5ccccc5)CC4)c[nH]c23)nn1C` [B-43] yielded an EC50 of less than 500 nM.
For `Cn1nc(-c2ncc(F)c3c(C(=O)C(=O)N4CCN(c5nnnn5-c5ccccc5)CC4)c[nH]c23)cc1C(=O)NCCO` [B-44], the EC50 was less than 500 nM.
`CN(C)CCCNC(=O)c1cc(-c2ncc(F)c3c(C(=O)C(=O)N4CCN(c5nnnn5-c5ccccc5)CC4)c[nH]c23)nn1C` [B-45] was tested, and the EC50 was less than 500 nM.
With `N#Cc1ncc(F)c2c(C(=O)C(=O)N3CCN(c4nnnn4-c4ccccc4)CC3)c[nH]c12` [B-46] the EC50 was greater than 500 nM.
`CC(=O)c1ncc(F)c2c(C(=O)C(=O)N3CCN(c4nnnn4-c4ccccc4)CC3)c[nH]c12` [B-47] showed an EC50 of less than 500 nM.
With `CO/N=C(\C)c1ncc(F)c2c(C(=O)C(=O)N3CCN(c4nnnn4-c4ccccc4)CC3)c[nH]c12` [B-48] the EC50 was less than 500 nM.
Work on `C/C(=N\O)c1ncc(F)c2c(C(=O)C(=O)N3CCN(c4nnnn4-c4ccccc4)CC3)c[nH]c12` [B-49] yielded an EC50 of less than 500 nM.
`NC(=O)c1ncc(F)c2c(C(=O)C(=O)N3CCN(c4nnnn4-c4ccccc4)CC3)c[nH]c12` [B-50] gave an EC50 of less than 500 nM.
`CCOC(=O)c1cc(-c2ncc(F)c3c(C(=O)C(=O)N4CCN(c5c[nH]nc5-c5ccccc5)CC4)c[nH]c23)n[nH]1` [B-51] was tested, and the EC50 was less than 500 nM.
Work on `O=C(NCCO)c1cc(-c2ncc(F)c3c(C(=O)C(=O)N4CCN(c5c[nH]nc5-c5ccccc5)CC4)c[nH]c23)n[nH]1` [B-52] yielded an EC50 of less than 500 nM.
In the case of `CN(C)CCCNC(=O)c1cc(-c2ncc(F)c3c(C(=O)C(=O)N4CCN(c5c[nH]nc5-c5ccccc5)CC4)c[nH]c23)n[nH]1` [B-53], the EC50 is reported as less than 500 nM.
Work on `O=C(NCCN1CCOCC1)c1cc(-c2ncc(F)c3c(C(=O)C(=O)N4CCN(c5c[nH]nc5-c5ccccc5)CC4)c[nH]c23)n[nH]1` [B-54] yielded an EC50 of less than 500 nM.
`O=C(NCCO)c1ncc(F)c2c(C(=O)C(=O)N3CCN(c4nnnn4-c4ccccc4)CC3)c[nH]c12` [B-55] gave an EC50 of less than 500 nM.
In the case of `CN(C)c1cnc(C(=O)NCCO)c2[nH]cc(C(=O)C(=O)N3CCN(c4nnnn4-c4ccccc4)CC3)c12` [B-56], the EC50 is reported as less than 500 nM.
`CCOC(=O)c1ncc(F)c2c(C(=O)C(=O)N3CCN(c4nnnn4-c4ccccc4)CC3)c[nH]c12` [B-57] was tested, and the EC50 was less than 500 nM.
For `COc1cnc(-c2csc(C3OCCO3)n2)c2[nH]cc(C(=O)C(=O)N3CCN(c4nnnn4-c4ccccc4)CC3)c12` [B-58], the EC50 was less than 500 nM.
Compound `CNCc1nc(-c2ncc(OC)c3c(C(=O)C(=O)N4CCN(c5nnnn5-c5ccccc5)CC4)c[nH]c23)cs1` [B-59] has an EC50 of less than 500 nM.
In the case of `CCOC(=O)c1cc(-c2ncc(F)c3c(C(=O)C(=O)N4CCN(c5nnnn5-c5ccccc5)CC4)cn(C)c23)nn1C` [B-60], the EC50 is reported as less than 500 nM.
`COc1cnc(-c2cncnc2)c2[nH]cc(C(=O)C(=O)N3CCN(c4nnnn4-c4ccccc4)CC3)c12` [B-63] was tested, and the EC50 was less than 500 nM.
In the case of `COc1cnc(C(=O)NCCO)c2[nH]cc(C(=O)C(=O)N3CCN(c4nnnn4-c4ccccc4)CC3)c12` [B-64], the EC50 is reported as less than 500 nM.
Compound `CNC(=O)c1ncc(OC)c2c(C(=O)C(=O)N3CCN(c4nnnn4-c4ccccc4)CC3)c[nH]c12` [B-65] has an EC50 of less than 500 nM.
Compound `COc1cnc(C(=O)NC2CC2)c2[nH]cc(C(=O)C(=O)N3CCN(c4nnnn4-c4ccccn4)CC3)c12` [B-66] has an EC50 of less than 500 nM.
In the case of `COc1cnc(-c2cc(CO)[nH]n2)c2[nH]cc(C(=O)C(=O)N3CCN(c4nnnn4-c4ccccn4)CC3)c12` [B-67], the EC50 is reported as less than 500 nM.
